Entries after “also recorded” stand apart in the source; their conditions may differ.

Assay [1] has as its system Type II refractory celiac disease. Put plainly: Trend of pertinent laboratory values in a Type II RCD patient across sequential treatments. The format is in vivo, human. Details: CRP: unit not given beside the values. The note with it: for CRP / DGP IgA / TTG IgA: same patient, Budesonide 3 m, Infliximab 1 y, Cladribine 1.5 y, Tofacitinib 2 y. An excerpt:
A person with a past medical history significant for Hashimoto's thyroiditis and positive celiac serology was initially seen for protein-losing enteropathy. Although they had previously been on a gluten-free diet (GFD) for 1 year after first being diagnosed with CD, they re-introduced gluten 3 years before pregnancy without symptoms. They stayed on gluten until one-month postpartum when they developed epigastric pain, nausea, diarrhea with 2-3 loose to watery stools daily, along with significant bilateral lower extremity edema.
At the time of initial hospital admission, they were five months postpartum with the above symptomatology. […] They were discharged to outpatient setting on a GFD and referred to a CD clinic for management.
(§1) During the initial outpatient visit in the CD clinic they were hypotensive with anasarca, diagnosed with celiac crisis, and urgently sent for readmission. They were treated with 72 hours of intravenous solumedrol 20 mg every 12 hours and then transitioned to open-capsule protocol budesonide 3 mg three times a day.
(§2) They were therefore switched to experimental infliximab after a total of 5 months on budesonide.
(§3) The patient was now about 18 months out from diagnosis of Type II RCD, which is associated with about 50% risk of lymphoma in 5 years, so it was imperative to find an effective regimen. […] Discussion of associated adverse events, including thromboembolic ones, was conducted, and pre-treatment labs including lipid profile were done. […] This was the first-time the patient achieved such results in the 2 years since presenting with celiac crisis. […] Their tofacitinib dose will be reduced to 5 mg twice daily to reduce associated adverse events.

Assay [2] has the same test system. Put plainly: Small bowel biopsy histology (modified Marsh classification) and immunophenotype in the Type II RCD patient. The format is in vivo, human. To be noted: for Pathology (Marsh lesion): same patient, Budesonide 3 m, Infliximab 1 y, Cladribine 1.5 y, Tofacitinib 2 y; for Marsh lesions on biopsy: tofacitinib 10 mg twice daily, four months.
Text: CD can be characterized using the modified Marsh classification scheme. A subject having a Marsh 0 score would be characterized as either healthy or if previously diagnosed with CD, as “CD in remission”. A Marsh 1 score is non-specific, rarely seen in CD, unless already on a GFD during endoscopy, and may be observed in subjects having dermatitis herpetiformis (DH) or in family members of CD patients, but also with other conditions as infections and adverse response to medications. A Marsh 2 score is rare and is sometimes observed in DH and again in CD patients already on a GFD. Marsh 3 score is characteristic of the spectrum of changes observed in symptomatic CD patients.
as §1, §2, §3

For assay [3] the test system is unchanged. Put plainly: Endoscopic and clinical response of the Type II RCD patient. The format is in vivo, human. To be noted: for Endoscopic finding (ulcerative jejunitis / duodenopathy): budesonide 3 months, infliximab 9 months, tofacitinib 10 mg twice daily, four months. The protocol: as §1, §2, §3
However, malabsorption, malignancy, morbidity and mortality are known complications in Type II RCD (Cellier et al. (2000); Ilus et al. (2014); Weiss (2021) Diagnosis and Management of Gluten-Associated Disorders: A clinical casebook. Springer). Currently, the best clinical practice in managing RCD is to advocate for experimental medication treatment in adjunct to a strict gluten-free diet (GFD). Yet the same guidelines acknowledge the absence of treatments with proven efficacy in Type II RCD (Rubio-Tapia et al. (2013) Am. J. Gastroenterol., 108(5):656-677; Al-Toma et al. (2019) United European Gastroenterol. J.: 7(5):583-613). The European guidelines discuss the potential use of AMG714 or JAK inhibitor after corticosteroids, immunomodulators, and chemotherapy in the most refractory of CD cases. […] Additional studies are needed, but the therapy disclosed herein may be utilized in uncomplicated CD or non-responsive CD (NRCD) in combination with a GFD, or even as a substitute to one.

Another assay addresses IL-15 (Homo sapiens, UniProt P40933). The note with it: cited from earlier work.
The mark [4] stands for this setting: budesonide 3 months, infliximab 9 months.

Sequence of IL-15 (P40933 49-162): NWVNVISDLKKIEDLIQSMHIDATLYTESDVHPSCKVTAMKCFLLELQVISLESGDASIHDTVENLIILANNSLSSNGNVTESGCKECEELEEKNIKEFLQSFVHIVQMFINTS

Consider `CCCC1O[C@@H]2C[C@H]3[C@@H]4CCC5=CC(=O)C=C[C@]5(C)[C@H]4[C@@H](O)C[C@]3(C)[C@]2(C(=O)CO)O1` (stereo partly shown) [Budesonide, budesonide], for which, in assay [1], the CRP is on record as under 0.3, the “DGP IgA” value is 186.9 and the “TTG IgA” value stood at 152.3.
As to `Nc1nc(Cl)nc2c1ncn2[C@H]1C[C@H](O)[C@@H](CO)O1` [Cladribine, cladribine], in assay [1], the CRP is under 0.3, the “DGP IgA” value was 57.7 (H) and the “TTG IgA” value is on record as 44.3 (H). In addition, the “Pathology (Marsh lesion)” value in assay [2] is “Marsh 3A”. In addition, the “Resolution of RCD” value in assay [3] (one dose of cladribine 10 mg IV) is recorded as “without resolution of their RCD”.
As to `C[C@@H]1CCN(C(=O)CC#N)C[C@@H]1N(C)c1ncnc2[nH]ccc12` [Tofacitinib, tofacitinib], in assay [1] (four months after start of tofacitinib 10 mg twice daily), the CD serologies entry is recorded as “normalization of their CD serologies”. In assay [1], the CRP is given as under 0.3, the “DGP IgA” value was 70 (H) and the “TTG IgA” value was 5. For the same compound, the “Marsh lesions on biopsy” value in assay [2] (setting [4]) was “Marsh 1-2”. The “Duodenal bulb biopsy histology (H&E)” value in assay [2] (during tofacitinib therapy, FIG. 2D) is “normal villous architecture with focal areas of crypt hyperplasia and an increase in intraepithelial lymphocytes”. In addition, the “Pathology (Marsh lesion)” value in assay [2] is “Marsh 1-2”. Also, the “Endoscopic finding (ulcerative jejunitis / duodenopathy)” value in assay [3] was “reversed severe therapy-refractory duodenopathy; also recorded: improvement in their duodenopathy”. Further, in assay [3] (during tofacitinib therapy), the Symptoms entry is reported as “ameliorated symptoms of CD; also recorded: feeling well with minimum symptoms”.
As to AMG714: anti-IL-15 mAb, in the assay with IL-15, the “Results of AMG714” value is given as “positive yet statistically insignificant results”.
As for infliximab, in assay [1], the CRP is given as under 0.3, the “DGP IgA” value was 53.9 (H) and the “TTG IgA” value is listed as 33.1 (H). For the same compound, in assay [2] (setting [4]), the “T-cell aberrancy / CD8 expression in intraepithelial T-lymphocytes” value is recorded as “unchanged T-cell aberrancy” and the “Marsh lesions on biopsy” value is “Marsh 3A”. For the same compound, in assay [2], the “Pathology (Marsh lesion)” value was “Marsh 3A”. Also, the “Endoscopic finding (ulcerative jejunitis / duodenopathy)” value in assay [3] is “resolution of their ulcerative jejunitis”.

The record behind these values is US20240307396A1, “COMPOSITIONS AND METHODS FOR TREATING CELIAC DISEASE” (THE REGENTS OF THE UNIVERSITY OF CALIFORNIA, priority 2021, published 2024).
